Data reported in patent US20250339434A1, “TREATING NEUROLOGIC DISEASES” (priority 2024, published 2025).
“And” between values parts separate entries of the source, which are not always exact repeats. Equal entries are not always repeated. “Also recorded” adds a separate entry of the source. Marks after values point to notes of the source that are not given here.

Experiments:
patients with ASD [1] = experiment: SRS scores in patients with ASD tested for FRAAs and sFBPs: effect of leucovorin and concurrent treatments; assay type: in vivo, human; conditions: for Association of concurrent treatment with SRS scores: concurrent treatments
Protocol: (§1) In other tests, many patients with ASD were tested for FRAAs and sFBPs to guide clinical management by identifying the clinical characteristics associated with these biomarkers and to determine whether the biomarkers could predict treatment response.
This is due to two opposing effects. It appears that those with higher binding FRAAs that were not treated with leucovorin had more severe ASD symptoms than those with low binding FRAA titers. In contrast, those with higher FRAA titers who were treated with leucovorin appear to have less severe ASD symptoms than those that were treated and had lower binding FRAA titers. […] Those patients with some of the highest binding FRAA titers can have, on average, a eight-to-sixteen point favorable response on SRS subscales, an amount that can move them into more favorable severity categories.
FIGS. 8A-E are a collection of five charts illustrating results of factoring in a titer of binding autoantibody with the folate treatment when applied to several patients, where the results are shown on a Social Responsiveness Scale.
(§2) The following two tables indicate some treatments and a statistically significant effect of concurrent treatments. β indicates an effectiveness on a certain outcome measure. In Table 2 and 3, a negative value for beta indicates a positive result.

patients with ASD [2] = experiment: ABC scores in patients with ASD tested for FRAAs and sFBPs: effect of leucovorin and concurrent treatments; assay type: in vivo, human; conditions: for Effect on ABC Hyperactivity: concurrent treatments
Protocol: as §1, §2

[3] = system: sFBP positive human subjects (patients) with ASD; experiment: Social Responsiveness Scale (SRS) scores before and after leucovorin in sFBP positive patients; assay type: in vivo
Protocol: Turning now to FIGS. 2A-F, six figures indicate results of treatments when using the process (100) of FIG. 1. In sFBP positive human subjects (patients) started on the standard dose of leucovorin (25 mg twice a day) but in 6 of 12 (50%), the dose of leucovorin was increased to 50 mg twice a day in order to obtain an effective response as judged by the ongoing clinical evaluation. The number of days treated with leucovorin ranged from 92 to 1022 days with an average (SD) number of 584 (333) days of treatment. The graphs of FIGS. 2A-F illustrate the patients' responses using a Social Responsiveness Scale (SRS, which is known in the field, so will not be explained in detail herein). The difference in SRS scores was compared before and after the start of leucovorin treatment. The Total score decreased by 7.4 (1.4) t-score points with leucovorin treatment [F(1,44.6)=28.03, p<0.001, Cohen's d′=1.4]. The Awareness subscale decreased by 8.0 (1.9) t-score points with leucovorin treatment [F(1,45.9)=18.01, p<0.001, Cohen's d′=1.1]. The Cognition subscale decreased by 8.5 (1.8) t-score points with leucovorin treatment [F(1,45.4)=21.64, p<0.001, Cohen's d′=1.2]. The Communication subscale decreased by 8.9 (1.6) t-score points with leucovorin treatment [F(1,44.6)=31.22, p<0.001, Cohen's d′=1.4]. The Motivation subscale decreased by 6.9 (2.1) t-score points with leucovorin treatment [F(1,44.8)=10.91, p<0.01, Cohen's d′=0.9]. The Mannerisms subscale decreased by 4.3 (1.9) t-score points with leucovorin treatment [F(1,45.0)=[…], p=0.03, Cohen's d′=0.6]. To determine an estimate of the timing of the effect of leucovorin treatment, linear regression models were used to determine the change in SRS scores with each day of leucovorin treatment, as shown in FIGS. 2A-F. The Total score decreased by 0.01 (0.002) t-score points per day on leucovorin [F(1,46.6)=25.68, p<0.001]. The Awareness subscale decreased by 0.014 (0.003) t-score points per day on leucovorin [F(1,47.2)=19.74, p<0.001]. The Cognition subscale decreased by 0.013 (0.003) t-score points per day on leucovorin [F(1,47.4)=17.49, p<0.001]. The Communication subscale decreased by 0.013 (0.003) t-score points per day on leucovorin [F(1,46.2)=21.48, p<0.001]. The Motivation subscale decreased by 0.01 (0.004) t-score points per day on leucovorin [F(1,46.1)=8.27, p<0.01]. The Mannerisms subscale decreased by 0.008 (0.003) t-score points per day on leucovorin [F(1,46.2)=6.34, p=0.02].

[4] = cited from earlier work
[5] = system: sFBP positive human subjects (patients) with ASD; experiment: Aberrant Behavior Checklist (ABC) scores before and after leucovorin in sFBP positive patients; assay type: in vivo
Source text: FIGS. 3A-F includes six charts that indicate results of treatments when using the process (100) of FIG. 1 using the Aberrant Behavioral Checklist (ABC, which is known in the field, so will not be explained in detail herein). The patients are the same as the patients in FIGS. 2A-F. Note that the scores/scales are different in FIGS. 3A-F, but the patients are the same and measured over the same time period as FIGS. 2A-F. The difference in ABC scores was compared before and after the start of leucovorin treatment. The Total score decreased by 20.2 (5.9) raw points with leucovorin treatment [F(1,44.8)=11.92, p=0.001, Cohen's d′=0.9]. The Irritability subscale decreased by 5.7 (2.1) raw points with leucovorin treatment [F(1,44.8)=7.56, p<0.01, Cohen's d′=0.6]. […] The Stereotypy subscale decreased by 2.2 (1.0) raw points with leucovorin treatment [F(1,46.4)=4.56, p<0.05, Cohen's d′=0.5]. The Hyperactivity subscale decreased by 6.8 (1.6) raw points with leucovorin treatment [F(1,43.8)=18.34, p<0.001, Cohen's d′=1.1]. […] To get an estimate of the timing of the effect of leucovorin treatment, linear regression models were used to determine the change in ABC scores with each day of leucovorin treatment, as shown in FIGS. 3A-F. The Total score decreased by 0.04 (0.01) raw points per day on leucovorin [F(1,46.3)=12.67, p=0.001]. The Irritability subscale decreased by 0.008 (0.004) raw points per day on leucovorin [F(1,46.5)=5.33, p<0.05]. The Social-Withdrawal subscale decreased by 0.01 (0.003) raw points per day on leucovorin [F(1,44.9)=13.85, p<0.001]. The Stereotypy subscale decreased by 0.004 (0.002) raw points per day on leucovorin [F(1,48.1)=6.17, p<0.05]. The Hyperactivity subscale decreased by 0.01 (0.003) raw points per day on leucovorin [F(1,44.6)=20.56, p<0.001].

individuals with ASD [6] = experiment: Safety and tolerability in individuals with ASD; assay type: in vivo, human; conditions: vulnerable population (ASD)
individuals with ASD [7] = conditions: cited from earlier work
[8] = effect size, before vs after leucovorin
[9] = sFBP positive patients, before vs after start of leucovorin
[10] = effect of concurrent treatment, negative beta = positive result

Nc1nc2c(c(=O)[nH]1)N(C=O)C(CNc1ccc(C(=O)N[C@@H](CCC(=O)O)C(=O)O)cc1)CN2 (mixture of isomers) [leucovorin, folinic acid]
SRS t-scores / ASD symptoms as binding FRAA titers increase, with leucovorin treatment (patients with ASD [1]; dependence on binding FRAA titer): less severe ASD symptoms when treated with leucovorin; also recorded: better (lower scores) | Favorable response on SRS subscales in patients with some of the highest binding FRAA titers (patients with ASD [1]; on average, highest binding FRAA titers): eight-to-sixteen | Effect on core ASD symptoms (patients with ASD [1]; patients with ASD): improves core ASD symptoms | Effect on ABC Irritability (patients with ASD [2]): only improved Irritability; also recorded: overall improving irritability | Cohen's d′, SRS Awareness subscale [3, 8]: 1.1 | Cohen's d′, SRS Cognition subscale [3, 8]: 1.2 | Cohen's d′, SRS Communication subscale [3, 8]: 1.4 | Cohen's d′, SRS Mannerisms subscale [3, 8]: 0.6 | Cohen's d′, SRS Motivation subscale [3, 8]: 0.9 | Cohen's d′, SRS Total score [3, 8]: 1.4 | Duration of treatment necessary for the 7-point improvement in the SRS ([3]; individuals positive for sFBPs): two years | SRS Awareness subscale decrease per day on leucovorin ([3]; linear regression model): 0.014 (0.003) t-score points per day | SRS Cognition subscale decrease per day on leucovorin ([3]; linear regression model): 0.013 (0.003) t-score points per day | SRS Communication subscale decrease per day on leucovorin ([3]; linear regression model): 0.013 (0.003) t-score points per day | SRS Mannerisms subscale decrease per day on leucovorin ([3]; linear regression model): 0.008 (0.003) t-score points per day | SRS Motivation subscale decrease per day on leucovorin ([3]; linear regression model): 0.01 (0.004) t-score points per day | SRS Total score decrease per day on leucovorin ([3]; linear regression model): 0.01 (0.002) t-score points per day | SRS score decrease with leucovorin (summary) ([3]; sFBP positive patients): about 7 points | SRS Total score decrease with leucovorin treatment ([3]; sFBP positive patients (12), before vs after start of leucovorin 25 or 50 mg twice a day, 92 to 1022 days, value (spread)): 7.4 (1.4) t-score points | SRS Awareness subscale decrease with leucovorin treatment [3, 9]: 8.0 (1.9) t-score points | SRS Cognition subscale decrease with leucovorin treatment [3, 9]: 8.5 (1.8) t-score points | SRS Communication subscale decrease with leucovorin treatment [3, 9]: 8.9 (1.6) t-score points | SRS Mannerisms subscale decrease with leucovorin treatment [3, 9]: 4.3 (1.9) t-score points | SRS Motivation subscale decrease with leucovorin treatment [3, 9]: 6.9 (2.1) t-score points | Absorption following oral administration [4]: rapidly absorbed | Cohen's d′, ABC Hyperactivity subscale [5, 8]: 1.1 | Cohen's d′, ABC Irritability subscale [5, 8]: 0.6 | Cohen's d′, ABC Social Withdrawal subscale [5, 8]: 0.9 | Cohen's d′, ABC Stereotypy subscale [5, 8]: 0.5 | Cohen's d′, ABC Total score [5, 8]: 0.9 | Duration of treatment required for the 5.7 improvement in irritability on the ABC ([5]; individuals positive for sFBPs): two years | ABC Hyperactivity subscale decrease per day on leucovorin ([5]; linear regression model): 0.01 (0.003) raw points per day | ABC Inappropriate Speech subscale change per day on leucovorin ([5]; linear regression model): did not change significantly | ABC Irritability subscale decrease per day on leucovorin ([5]; linear regression model): 0.008 (0.004) raw points per day | ABC Social-Withdrawal subscale decrease per day on leucovorin ([5]; linear regression model): 0.01 (0.003) raw points per day | ABC Stereotypy subscale decrease per day on leucovorin ([5]; linear regression model): 0.004 (0.002) raw points per day | ABC Total score decrease per day on leucovorin ([5]; linear regression model): 0.04 (0.01) raw points per day | ABC Hyperactivity subscale decrease with leucovorin treatment [5, 9]: 6.8 (1.6) raw points | ABC Inappropriate Speech subscale change with leucovorin treatment [5, 9]: did not change significantly | ABC Irritability subscale decrease with leucovorin treatment [5, 9]: 5.7 (2.1) raw points and 5.7 raw points | ABC Social Withdrawal subscale decrease with leucovorin treatment [5, 9]: 5.8 raw points | ABC Stereotypy subscale decrease with leucovorin treatment [5, 9]: 2.2 (1.0) raw points | ABC Total score decrease with leucovorin treatment [5, 9]: 20.2 (5.9) raw points | Safety and tolerability (individuals with ASD [6]): extremely safe and well-tolerated

C[N+](C)(C)CC(O)CC(=O)[O-] (centres unmarked) [Carnitine]
β, SRS Motivation (patients with ASD [1]; [10]): −2.3 (1.0)* | Effect on ABC Hyperactivity (patients with ASD [2]): improve ABC Hyperactivity | Effect on ABC Hyperactivity (patients with ASD [2]; listed as carnitine): better score on ABC Hyperactivity | Effect on core ASD symptoms in two DBPC studies (individuals with ASD [7]): improve core ASD symptoms

C/C1=C2/[N-][C@H]([C@H](CC(N)=O)[C@@]2(C)CCC(=O)NC[C@@H](C)OP(=O)([O-])O[C@H]2[C@@H](O)[C@@H](n3cnc4cc(C)c(C)cc43)O[C@@H]2CO)[C@]2(C)N=C(/C(C)=C3N=C(/C=C4N=C1[C@@H](CCC(N)=O)C\4(C)C)[C@@H](CCC(N)=O)[C@]\3(C)CC(N)=O)[C@@H](CCC(N)=O)[C@]2(C)CC(N)=O.[CH3-].[Co+3] [mB12 SQ, Methyl-cobalamin]
β, SRS Cognition (patients with ASD [1]; [10]): −4.3 (1.3)*** | β, SRS Motivation (patients with ASD [1]; [10]): −3.2 (1.3)* | β, SRS Total (patients with ASD [1]; effect of concurrent treatment, negative beta = positive result, value (spread)): −2.8 (1.1)** | Association of concurrent treatment with SRS scores (patients with ASD [1]; patients with ASD): improve the SRS Total score, as well as all subscales except SRS Awareness | Association of concurrent treatment with SRS scores (patients with ASD [1]; patients with ASD, listed as mB12 Subcutaneous): better SRS scores on a few subscales
